Experimental data published in patent US20210008142A1, “PREPARATION AND USES OF SPINOSIN-Na FROM ZIZIPHI SPINOSAE SEMEN” (Shanxi University, priority 2019, published 2021).
≈ marks a conversion by molar mass, not a printed value. Like-named read-outs stand apart in the source and are kept apart here.

Columns and labels:
[1] = spinosin prepared by the existing methods; cited from earlier work
[2] = test system: Colon cancer cell line HCT116; test: MTT assay, tumor cell proliferation; format: cell-based; settings: 48 h; for IC50: HCT-116, MTT
Protocol: (§1) Colon cancer cell line HCT116, cervical cancer cell line Hela, breast cancer cell MCF-7, liver cancer cell HepG2 and normal colonic epithelial cell line FHC in the logarithmic phase were harvested and respectively made into a suspension. After counted, the suspensions were adjusted to 6000 cells/100 μL, and then 100 μL, of respective suspensions were seeded into a 96-well plate, and cultured at 37° C. and 5% CO2 overnight. After that, the culture medium was discarded, and the wells were respectively added with culture mediums containing different concentrations of spinosin-Na, such that final concentrations of the spinosin-Na were respectively 50, 100, 150, 200 and 250 μg/mL. 5 parallel wells were set for each concentration treatment. The cells were continuously cultured in the incubator for 48 h. After that, the culture medium was discarded, and the cells were washed twice with PBS, added with 20 μL of 5.0 mg/mL MTT and continuously cultured for 4 h. The culture medium was discarded, and respective wells were added with 150 μL of DMSO to dissolve formazan crystals produced by living cells. The plate was shaken on a shaker for 10 min, and then transferred to a microplate reader for the measurement of absorbance at 570 nm.
(§2) The antitumor activity of different concentrations of spinosin (100, 200, 300, 400, 500 μg/mL) was measured by the same method described above.

[3] = test system: cervical cancer cell line Hela; test: MTT assay, tumor cell proliferation; format: cell-based; settings: 48 h; for IC50: MTT
Protocol: as §1, §2

Water solubility = format: physicochemical
[4] = test system: normal colonic epithelial cell line FHC; test: MTT assay, normal cell proliferation; format: cell-based; settings: 50-250 μg/mL, 48 h
Protocol: as §1, §2

breast cancer cell MCF-7 = test: MTT assay, tumor cell proliferation; format: cell-based; settings: 48 h
Protocol: as §1, §2

liver cancer cell HepG2 = test: MTT assay, tumor cell proliferation; format: cell-based; settings: 48 h
Protocol: as §1, §2

[5] = test system: colon cancer cells HCT116; test: Annexin V/PI flow cytometry apoptosis; format: cell-based; settings: HCT116, 48 h
Protocol: (§3) HCT116 and Hela cells in the logarithmic phase were harvested, digested with 0.25% trypsin, and seeded into a 6-well cell culture plate at a density of 1×10^5 cells per petri dish. The cells were cultured at 37° C. and 5% CO2 in an incubator overnight. After the cell adhesion was observed, the culture medium was replaced, and the dishes were respectively added with different concentrations of spinosin-Na. At the same time, a blank control was set, and each concentration treatment was performed in triplicate. The cells were continuously cultured in the incubator under the same conditions for 48 h. After that, the adherent cells were digested with 0.25% trypsin followed by centrifugation at 1,000 rpm for 5 min. The supernatant was discarded, and the cells were washed twice with PBS. The cells were suspended with 200 μL of a mixture of Annexin V and Binding buffer and reacted at 4° C. in the dark for 30 min. 300 μL of a mixed solution of PI and Binding buffer was added to each sample 5 min before the test. The double-stained cells were detected by flow cytometry to identify normal cells, early apoptotic cells, late apoptotic cells and necrotic cells, determining the apoptosis rate. […]

[6] = test system: cervical cancer cells Hela; test: Annexin V/PI flow cytometry apoptosis; format: cell-based; settings: 48 h
Protocol: as §3

IC50 [2] [µg/mL] | IC50 [3] [µg/mL] | water solubility (Water solubility) | IC50 (breast cancer cell MCF-7; MCF7, MTT) [µg/mL] | IC50 (liver cancer cell HepG2; HepG2, MTT) [µg/mL] | Compound | water solubility [1] | effect on proliferation of normal cells [4] | proliferation of tumor cells ([2]; HCT116, 50-250 μg/mL) | proliferation of tumor cells (breast cancer cell MCF-7; MCF-7, 50-250 μg/mL) | proliferation of tumor cells (liver cancer cell HepG2; HepG2, 50-250 μg/mL) | proliferation of tumor cells ([3]; 50-250 μg/mL) | apoptosis of tumor cells [5] | apoptosis of tumor cells [6]
732.71 ± 18.97 (≈ 1200 µM) | 687.60 ± 2132 (≈ 1130 µM) |  |  |  | COc1cc2oc(-c3ccc(O)cc3)cc(=O)c2c(O)c1[C@@H]1O[C@H](CO)[C@@H](O)[C@H](O)[C@H]1O[C@@H]1O[C@H](CO)[C@@H](O)[C@H](O)[C@H]1O [Spinosin, spinosin] | poor water-solubility |  |  |  |  |  |  | 
147.20 ± 4.65 | 178.41 ± 6.83 | good water solubility | 291.79 ± 10.49 | 444.08 ± 15.21 | spinosin-Na |  | no significant effect | significantly inhibit the proliferation | significantly inhibit the proliferation | significantly inhibit the proliferation | significantly inhibit the proliferation | significantly induce the apoptosis | significantly induce the apoptosis
